Patent US20160193211A1, “COMBINATIONS OF A BTK INHIBITOR AND FLUOROURACIL FOR TREATING CANCERS” (priority 2013, published 2016)

Columns and labels:
[1] = test system: HCT116 overexpressing p65BTK (HCT116p65BTK); conditions: 200 μM 5FU, 72 hours
HCT116 xenografts = experiment: In vivo treatment of drug-sensitive xenografts; conditions: for average volume of the tumor masses: after 28 days; for average volume of the tumor masses / significance of difference in tumor size vs vehicle-treated (untreated) group: 5FU 60 mpk
HCT116p53KO xenografts = experiment: In vivo treatment of drug-resistant xenografts; conditions: for average volume of the tumor masses: after 28 days, ibrutinib 25 mpk oral gavage once a day 5 days a week, 5FU 60 mg/kg i.p. twice a week
HCT116 cells = experiment: Photographs of cells at 72 hours of incubation (FIG. 5b); conditions: 10 μM 5FU or 20 μM ibrutinib
[2] = test system: HCT116p53KO, SW480, HT-29, HCT116 and RKO colon carcinoma cell lines; experiment: Cell viability, calcein assay, ibrutinib alone (FIG. 15); format: cell-based; conditions: 72 hs
[3] = test system: HCT116p53KO, SW480, DLD-1 and HCT116 colon carcinoma cell lines; experiment: In vitro cell proliferation assay (short term, CellTiter 96 AQueous); format: cell-based; conditions: ibrutinib 0 to 10 μM, up to 72 h
SW480 colon cancer cells = experiment: Cell viability, calcein assay (FIG. 6); format: cell-based; conditions: ibrutinib 20 μM with 5FU 200 μM or oxaliplatin 20 μM; oxaliplatin 20 μM alone; 72 hs
Description: At the end of the treatment cell viability was evaluated by calcein assay.

Structure (SMILES) | viability: response to the cytotoxic effect of 5FU [1] | average volume of the tumor masses (HCT116 xenografts; ibrutinib 25 mpk) | average volume of the tumor masses (HCT116 xenografts; ibrutinib 50 mpk) | significance of difference in tumor size vs vehicle-treated (untreated) group (HCT116 xenografts; ibrutinib 25 mpk) | percentage of proliferating (Ki67-positive) cells compared to vehicle or ibrutinib alone (HCT116 xenografts; ibrutinib 25 mpk, 5FU 60 mpk (FIG. 12b)) | significance of difference in tumor size vs vehicle-treated (untreated) group (HCT116 xenografts; ibrutinib 50 mpk) | percentage of proliferating (Ki67-positive) cells compared to vehicle or ibrutinib alone (HCT116 xenografts; ibrutinib 50 mpk, 5FU 60 mpk (FIG. 13b)) | average volume of the tumor masses (HCT116p53KO xenografts) | significance of reduction in tumor volume vs the untreated group (HCT116p53KO xenografts; ibrutinib 25 mpk, 5FU 60 mpk, end of treatment (FIG. 9b)) | toxicity seen in photographs, drugs used singularly (HCT116 cells) | growth-reducing and anti-proliferative effect on sensitive xenografts (HCT116 xenografts; ibrutinib alone, 25 or 50 mpk) | anti-tumoral effect (tumor volume vs untreated group) (HCT116p53KO xenografts; ibrutinib 50 mpk alone (FIG. 10b)) | toxicity by cell type ([2]; highest concentration of ibrutinib (range 0 to 30 μM)) | viability ([2]; ibrutinib up to 20 μM, all cell lines) | capacity of the cells to proliferate [3] | reversion of drug resistance (viability) (SW480 colon cancer cells)
O=c1[nH]cc(F)c(=O)[nH]1 [5FU, 5-fluoro-1H,3H-pyrimidine-2,4-dione] | become resistant to the cytotoxic effect of 5FU | ≈ 226 mm^3 | ≈ 226 mm^3 | significant | significantly reduces the percentage of proliferating cells | significant | significantly reduces the percentage of proliferating cells | ≈ 530 mm^3 | not significant | no toxicity is evident |  |  |  |  |  | 
C=CC(=O)N1CCC[C@@H](n2nc(-c3ccc(Oc4ccccc4)cc3)c3c(N)ncnc32)C1 [ibrutinib, 1-[(3R)-3-[4-amino-3-(4-phenoxyphenyl)pyrazolo[3,4-d]pyrimidin-1-yl]piperidin-1-yl]prop-2-en-1-one] |  | ≈ 347 mm^3 | ≈ 372 mm^3 | not statistically significant |  | not statistically significant |  | ≈ 760 mm^3 |  | no toxicity is evident | by itself is ineffective in these kind of tumors | has an anti-tumoral effect on its own | preferentially toxic for 5FU drug-resistant, p53-null | decreases the viability in a dose-dependent manner | does not alter the capacity of the cells to proliferate | 
O=C(O)C(=O)O.[NH-][C@@H]1CCCC[C@H]1[NH-].[Pt+2] [oxaliplatin] |  |  |  |  |  |  |  |  |  |  |  |  |  |  |  | Reversion of resistance was not obtained
